Experimental data published in patent US20060058380A1, “Novel aminobenzophenone compounds” (priority 2002, published 2006).

Tests used:
[1] = Discolouring of compounds on filter paper before and after sun-test illumination; assay type: physicochemical; parameters: key: 0: No colour; 1: Very faint colour; 2: Light colour; 3: Medium colour; 4: Strong colour; conditions: for Colour score prior to illumination: 10 mM in Ethanol:Labrasol:water 65:25:10, 10 ul spot on filter paper dried 15 minutes; for Colour score after illumination: spots illuminated in sun-test cabinet (Heraeus Suntest CPS), outdoor illumination, 5 minutes
Experimental: The discolouring of compounds of formula I was investigated in a comparison with known aminobenzophenones.
Compounds were dissolved in DMSO at 100 mM. The solutions were diluted 1:10 in the test vehicle (Ethanol:Labrasol:water 65:25:10) just prior to the experiment. 10 ul aliquots were placed in droplets on filter paper and allowed to dry for 15 minutes into spots. Then the colour of the spots was scored using the following scale:
The spots were illuminated in a sun-test cabinet (Heraeus Suntest CPS) set for outdoor illumination for 5 minutes. The scoring was repeated after illumination.

comedones = assay: Rhino mouse model, reduction of number of comedones; assay type: in vivo; conditions: topical on the back daily for 21 days, 45 mM in acetone, percentage change compared to untreated control group
Experimental: The rhino mouse is an in vivo model for the study of hyperplastic and comedolytic potency of compounds used in the treatment of acne. The rhino mouse has follicles on the skin, the orifices of which are distended with horny material, and these structures resembles human comedones.
The model uses mouse of the strain RHJ/LeJ Rhino, hr^rh/hr^rh. The mice are treated topically on the back daily for 21 days with the test compound. Compounds are tested for their ability to reduce the number of comedones.
The number of comedones in the skin of the mouse is determined by histological examination. The percentage change in the number of comedones compared to an untreated control group is calculated. The compounds were applied at 45 mM dissolved in acetone.

IL-1β = assay: Inhibition of IL-1β secretion in LPS stimulated peripheral blood mononuclear cells; assay type: cell-based; conditions: PBMC; LPS stimulated human peripheral blood mononuclear cells, 18 hours, ELISA; read-out: The median inhibition concentration (IC50, nM) IL-1β
Experimental: (§1) To study the effect of the compound of the present invention in vitro the inhibition of the IL-1β and TNF-α secretion was measured using the following procedure:
(§2) Cytokine production was measured in the media from lipopolysaccharide (LPS) stimulated peripheral blood mononuclear cells. The mononuclear cells were isolated from human peripheral blood by Lymphoprep® (Nycomed, Norway) fractionation and suspended in RPMI 1640 (growth medium) with foetal calf serum (FCS, 2%), at a concentration of 5×10^5 cells/ml. The cells were incubated in 24-well tissue culture plates in 1 ml aliquots. Test compounds were dissolved in dimethylsulfoxide (DMSO, 10 mM) and were diluted with the medium. Compounds were added to the cells for 30 minutes, then LPS ([…] final concentration) was added. The plates were incubated for 18 hours, and the concentration of IL-1β and TNF-α in the medium was determined by enzyme-linked immunosorbent assays. The median inhibitory concentrations (IC50) of the compounds were calculated.

TNF-α = assay: Inhibition of TNF-α secretion in LPS stimulated peripheral blood mononuclear cells; assay type: cell-based; conditions: PBMC; LPS stimulated human peripheral blood mononuclear cells, 18 hours, ELISA; read-out: The median inhibition concentration (IC50, nM) TNF-α
Experimental: as §1, §2

| SMILES | Colour score prior to illumination [1] | Colour score after illumination [1] | Reduction in number of comedones (comedones) [%] | IC50 (IL-1β) [nM] | IC50 (TNF-α) [nM] |
| --- | --- | --- | --- | --- | --- |
| Cc1ccccc1C(=O)c1ccc(N(C(=O)OC(C)OC(=O)CC(C)C)c2ccc(F)cc2C)cc1Cl (stereo not shown) [Compound 133, 3-Methyl-butyric acid 1-[[3-chloro-4-(2-methyl-benzoyl)-phenyl]-(4-fluoro-2-methyl-phenyl)-carbamoyloxy]-ethyl ester] | 0 | 0 | −61 | 79 | 20 |
| Cc1cc(F)ccc1Nc1ccc(C(=O)c2ccccc2C)c(Cl)c1 [Reference a, 2-chloro-4-(4-fluoro-2-methyl-phenylamino)-2′-methylbenzophenone, reference compound] | 0 | 3 |  | 32 | 7.9 |
| C/C=C/C(=O)OC(C)OC(=O)N(c1ccc(C(=O)c2ccccc2C)c(Cl)c1)c1ccc(F)cc1C (stereo not shown) [Compound 137, (E)-But-2-enoic acid 1-[[3-chloro-4-(2-methyl-benzoyl)-phenyl]-(4-fluoro-2-methyl-phenyl)-carbamoyloxy]-ethyl ester] |  |  |  | 7.9 | 5 |
| Cc1ccccc1C(=O)c1ccc(Nc2ccc(Br)cc2N)cc1Cl [Reference b, 4-(2-amino-4-bromo-phenylamino)-2-chloro-2′-methylbenzophenone, reference compound] | 1 | 3 |  |  |  |
| COCC(=O)OC(C)OC(=O)N(c1ccc(C(=O)c2ccccc2C)c(Cl)c1)c1ccc(F)cc1C (stereo not shown) [Compound 119, Methoxy-acetic acid 1-[[3-chloro-4-(2-methyl-benzoyl)-phenyl]-(4-fluoro-2-methyl-phenyl)-carbamoyloxy]-ethyl ester] | 0 | 0 |  |  |  |
| Cc1ccccc1C(=O)c1ccc(N(C(=O)OC(C)OC(=O)C(C)(C)O)c2ccc(F)cc2C)cc1Cl (stereo not shown) [Compound 128, 2-Hydroxy-2-methyl-propionic acid 1-[[3-chloro-4-(2-methyl-benzoyl)-phenyl]-(4-fluoro-2-methyl-phenyl)-carbamoyloxy]-ethyl ester] |  |  |  | 10 | 7.9 |
| CNc1ccccc1C(=O)c1ccc(Nc2ccccc2N)cc1Cl [Reference c, 4-(2-aminophenylamino)-2-chloro-2′-methylaminobenzophenon, reference compound] | 1 | 3 |  |  |  |
| CCCC(=O)OC(C)OC(=O)N(c1ccc(C(=O)c2ccccc2C)c(Cl)c1)c1ccc(F)cc1C (stereo not shown) [Compound 112, Butyric acid 1-[[3-chloro-4-(2-methyl-benzoyl)-phenyl]-(4-fluoro-2-methyl-phenyl)-carbamoyloxy]-ethyl ester] | 0 | 0 | −56 | 25 | 12 |
| CCCC(=O)OCOC(=O)N(c1ccc(C(=O)c2ccccc2C)c(Cl)c1)c1ccc(F)cc1C [Compound 113, Butyric acid [[3-chloro-4-(2-methyl-benzoyl)-phenyl]-(4-fluoro-2-methyl-phenyl)-carbamoyloxy]-methyl ester] | 0 | 0 | −72 | 50 | 10 |
| Cc1ccccc1C(=O)c1ccc(N(C(=O)OC(C)OC(=O)c2cccnc2)c2ccc(F)cc2C)cc1Cl (stereo not shown) [Compound 147, Nicotinic acid 1-[[3-chloro-4-(2-methyl-benzoyl)-phenyl]-(4-fluoro-2-methyl-phenyl)-carbamoyloxy]-ethyl ester] | 0 | 0 |  |  |  |
